Source: US20210038730A1, “PEPTIDE NANOFIBERS” (UNIVERSITY OF PORTSMOUTH HIGHER EDUCATION CORPORATION, priority 2018, published 2021)

How the values were obtained:
U-87 MG cells = test: Cell uptake of TR-TPGnRH, U-87 MG; format: cell-based, human
Description: (§1) The U-87 MG and SK-OV-3 cells were seeded at 20,000 cells/cm^2 in a 12-well plate (76,000 cells per well). Cells were allowed to attach overnight, and then the media was replaced by fresh media (900 μL) containing TR-TPGnRH (50 μg mL^−1 in PBS, 100 μL, pH 7.4). Subsequently, cells were either incubated at 4 or 37° C. for 1 and 4 hours. At the end of each time-point, cells were washed with HBSS twice to wash the free fibres, incubated with 500 μL TrypLE Enzyme at 37° C. for 3 minutes, and then collected by centrifugation at 1,000 rpm for 5 minutes using a C-28A centrifuge. Cells were then re-suspended in PBS (200 μL) and analysed in BD FACSCalibur™ flow cytometer acquiring at least 10,000 events. Unstained cells were used as a control in the flow cytometry settings.

[1] = test system: hCMEC/D3 endothelial cells; test: Cell uptake in endothelial cells (flow cytometry); format: cell-based, human; settings: 4 hours of incubation, 50 μg mL^−1
Description: TPGnRH was labelled with Texas Red (TR) according to the manufacturer's protocol. Endothelial cells were seeded (227,000 cells/cm^2) in 24-well plates, allowed to attach for 24 hours, and then media was replaced by fresh media containing TR-TPGnRH at 50 μg mL^−1 in PBS. Cells were either incubated at 4 or 37° C. for 1 and 4 hours. At the end of a time-point, cells were washed with HBSS to remove the free nanofibers, incubated with 500 μL of TrypLE Express Enzyme and collected by centrifugation. The cell pellet was then re-suspended in PBS, and cells were analysed in BD FACS Calibur™ flow cytometer (BD Biosciences, Wiltshire, UK) acquiring at least 10,000 events. Data were analysed in FlowJo® Software 10.1. Unstained cells were used as a control in the flow cytometry settings.

[2] = Permeability across in vitro blood-brain barrier model
Description: (§2) In order to test the permeability of TPGnRH nanofibers across the blood-brain barrier (BBB), a static contact co-culture was set up according to a previous method^7. Briefly, human astrocytes (SC-1800, 25,000 cells/well) were seeded on the abluminal side of a 24-well plate Transwell polycarbonate membrane (3 μm of a pore size, Corning Star, Deeside, UK) coated with human fibronectin. Cells were allowed to attach for 3 days, and then human brain microvascular endothelial cells (hCMEC/D3, 75,000 cells/well) were seeded on the luminal side of the Transwell and co-cultured with astrocytes for five days with a daily change of the media. Transendothelial resistance was measured using EVOM voltohmmeter (World Precision Instruments, Berlin, Germany).
(§3) Transwells were washed with HBSS and immersed into HBSS (600 μL in abluminal side). […] Samples (100 μL) were collected from the abluminal side at specific time-points, and fresh HBSS (100 μL) was used to replace the volume from the abluminal compartments. […] PAX was analysed using reverse phase-HPLC with the gradient method described on Table 2. TR-TPGnRH was quantified in POLARstar Omega plate reader spectrophotometer with λexc 596 and λem 615 nm. The permeability coefficient (Papp) was determined using the equation: […]
(§4) ΔQr, is the flux of drug along time (μg mL^−1), Vr is the volume of the abluminal side (mL), A is the area of the Transwell membrane, C0 is the concentration of drug in the luminal side, and 60, the converser factor from minutes to seconds^8.

SK-OV-3 cells = test: Cell uptake of TR-TPGnRH, SK-OV-3; format: cell-based, human
Description: as §1

[3] = test system: in vitro BBB model (hCMEC/D3 and SC-1800 co-culture); test: in vitro
Description: as §2, §3, §4

| Compound | Cell uptake (U-87 MG cells; 1 Hour, 4° C.) | Cell uptake (U-87 MG cells; 1 Hour, 37° C.) | Cell uptake (U-87 MG cells; 4 Hours, 4° C.) | Cell uptake (U-87 MG cells; 4 Hours, 37° C.) | TR-TPGnRH+ cells ([1]; 4° C.) [%] | TR-TPGnRH+ cells ([1]; 37° C.) [%] | Papp A→B [2] [×10⁻⁶ cm/s] | Cell uptake (SK-OV-3 cells; SK-OV-3, 1 Hour, 4° C.) | Cell uptake (SK-OV-3 cells; SK-OV-3, 1 Hour, 37° C.) | Cell uptake (SK-OV-3 cells; SK-OV-3, 4 Hours, 4° C.) | Cell uptake (SK-OV-3 cells; SK-OV-3, 4 Hours, 37° C.) | Papp [3] |
| --- | --- | --- | --- | --- | --- | --- | --- | --- | --- | --- | --- | --- |
| CCCCCCCCCCCCCCCC(=O)Oc1ccc(C[C@H](NC(=O)[C@H](CO)NC(=O)[C@H](Cc2c[nH]c3ccccc23)NC(=O)[C@H](Cc2c[nH]cn2)NC(=O)[C@H](CCC(=O)O)NS(=O)(=O)c2ccc(-c3c4cc5c6c(c4[o+]c4c7c8c(cc34)CCCN8CCC7)CCCN6CCC5)c(S(=O)(=O)[O-])c2)C(=O)NCC(=O)N[C@@H](CC(C)C)C(=O)N[C@@H](CCCNC(=N)N)C(=O)N2CCC[C@H]2C(=O)NCC(N)=O)cc1 [Texas Red-TPGnRH] | 20.51 ± 3.10 | 32.64 ± 5.04 | 52.36 ± 10.20 | 91.12 ± 1.11 | 0.18±0.05 | 68.43±0.85 | 6 | 10.02 ± 0.52 | 13.35 ± 0.53 | 52.47 ± 3.34 | 49.36 ± 4.66 | – |
| Texas Red [Free Texas Red] | – | – | – | – | – | – | – | – | – | – | – | 111.78 ± 24.30 ×10^−6 cm s^−1 |
